From patent publication US10821115B2, “Compounds that inhibit Mcl-1 protein” (priority 2017, dated 2020)
Read-outs that look alike come from different tables or passages of the source.

What was measured:
[1] = target: recombinant human Mcl-1 (residues 171-327) / Bim interaction (Homo sapiens (Human), UniProt Q07820); experiment: biochemical; type: binding; details: read-out: Mcl-1 HTRF IC50
[2] = tested on: human multiple myeloma cell line, OPM-2; experiment: Cell viability assay (OPM-2 10 FBS), CellTiter-Glo; type: cell-based
How it was run: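 Cells were seeded at 3000 cells/well in RPMI 1640 with 10% FBS and exposed to serially diluted compounds for 16 h at 37 °C, 5% CO2.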

[3] = TR-FRET, Mcl-1(171-327) / biotin-Bim (51-76)
[4] = Homo sapiens, OPM-2, 16 h, read-out: OPM-2 10% FBS IC50 IP, OPM-2 cells, 10% FBS, 16 h, CellTiter-Glo
[5] = 0.1 nM Mcl-1(171-327), 0.05 nM biotin-Bim (51-76)
[6] = Homo sapiens, OPM-2, 16 h, read-out: OPM-2 10% FBS IC50 IP, OPM-2 cells, 10% FBS, 16 h incubation
[7] = read-out: OPM-2 10% FBS IC50 IP, OPM-2 cells, 10% FBS, 16 h, CellTiter-Glo

recombinant human Mcl-1 (residues 171-327) / Bim interaction, sequence (Q07820 171-327): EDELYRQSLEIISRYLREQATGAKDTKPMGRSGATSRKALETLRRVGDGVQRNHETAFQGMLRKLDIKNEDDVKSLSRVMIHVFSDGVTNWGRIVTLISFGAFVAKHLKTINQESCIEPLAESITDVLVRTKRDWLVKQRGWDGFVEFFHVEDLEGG

Row | SMILES | IC50 [1, 3] [nM] | IC50 [2, 4] [nM] | other results
1 | CO[C@@]1(Cc2cc(C)on2)/C=C/C[C@H](C)[C@@H](C)S(=O)(=O)NC(=O)c2ccc3c(c2)N(C[C@@H]2CC[C@H]21)C[C@@]1(CCCc2cc(Cl)ccc21)CO3 [Example 100552, (1S,3′R,6′R,7′S,8′E,11′S,12′R)-6-chloro-7′-methoxy-11′,12′-dimethyl-7′-((5-methyl-1,2-oxazol-3-yl)methyl)-3,4-dihydro-2H,15′H-spiro[naphthalene-1,22′-[20]oxa[13]thia[1,14]diazatetracyclo [14.7.2.0~3,6~.0~19,24~]pentacosa[8,16,18,24]tetraen]-15′-one 13′,13′-dioxide] | 0.065 | 957 | 
2 | C[C@@H]1[C@@H](C)C/C=C/[C@@](O)(CCCO)[C@@H]2CC[C@H]2CN2C[C@@]3(CCCc4cc(Cl)ccc43)COc3ccc(cc32)C(=O)NS1(=O)=O (stereo in doubt) [Example 100128] | 0.089 | 217 | 
3 | COC(OC)c1cncc([C@@]2(O)/C=C/C[C@H](C)[C@@H](C)S(=O)(=O)NC(=O)c3ccc4c(c3)N(C[C@@H]3CC[C@H]32)C[C@@]2(CCCc3cc(Cl)ccc32)CO4)c1 (single isomer, unassigned) [Example 100507] | 0.43 | 490 | 
4 | CO[C@]1(CN2C[C@@H](C)N[C@@H](C)C2)/C=C/C[C@H](C)[C@@H](C)S(=O)(=O)NC(=O)c2ccc3c(c2)N(C[C@@H]2CC[C@H]21)C[C@@]1(CCCc2cc(Cl)ccc21)CO3 [Example 329, (1S,3′R,6′R,7′R,8′E,11′S,12′R)-6-chloro-7′-(((3R,5S)-3,5-dimethyl-1-piperazinyl)methyl)-7′-methoxy-11′,12′-dimethyl-3,4-dihydro-2H,15′H-spiro[naphthalene-1,22′-[20]oxa[13]thia[1,14]diazatetracyclo [14.7.2.0~3,6~.0~19,24~]pentacosa[8,16,18,24]tetraen]-15′-one 13′,13′-dioxide] |  |  | IC50 [1, 5]: 0.137 nM; IC50 [2, 6]: 243 nM
5 | C[C@@H]1[C@@H](C)C/C=C/[C@]2(CN3CCN(C)C[C@@H]3CO2)[C@@H]2CC[C@H]2CN2C[C@@]3(CCCc4cc(Cl)ccc43)COc3ccc(cc32)C(=O)NS1(=O)=O (single isomer, unassigned) [Example 133] |  |  | IC50 [1, 5]: 0.189 nM; IC50 ([2]; read-out: OPM-2 10% FBS IC50 IP, OPM-2 cells, 10% FBS, 16 h incubation): 136 nM
6 | C[C@@H]1[C@@H](C)C/C=C/[C@@]2(COCCO2)[C@@H]2CC[C@H]2CN2C[C@@]3(CCCc4cc(Cl)ccc43)COc3ccc(cc32)C(=O)NS1(=O)=O [Example 100233, (2S,3′R,6′R,8′E,11′S,12′R,22′S)-6″-chloro-11′,12′-dimethyl-3″,4″-dihydro-2″H,15′H-dispiro[1,4-dioxane-2,7′-[20]oxa[13]thia[1,14]diazatetracyclo [14.7.2.0~3,6~.0~19,24~]pentacosa[8,16,18,24]tetraene-22′,1″-naphthalen]-15′-one 13′,13′-dioxide] | 1.04 |  | IC50 [2, 7]: 257 nM
7 | C[C@@H]1[C@@H](C)CCC[C@@](O)(Cc2ccccn2)[C@@H]2CC[C@H]2CN2C[C@@]3(CCCc4cc(Cl)ccc43)COc3ccc(cc32)C(=O)NS1(=O)=O [Example 100105, (1S,3′R,6′R,7′R,11′S,12′R)-6-chloro-7′-hydroxy-11′,12′-dimethyl-7′-(2-pyridinylmethyl)-3,4-dihydro-2H,15′H-spiro[naphthalene-1,22′-[20]oxa[13]thia[1,14]diazatetracyclo [14.7.2.0~3,6~.0~19,24~]pentacosa[16,18,24]trien]-15′-one 13′,13′-dioxide] | 5.93 |  | IC50 [2, 7]: 3660 nM
8 | C[C@@H]1[C@@H](C)C/C=C/[C@](O)(C2SCCCS2)[C@@H]2CC[C@H]2CN2C[C@@]3(CCCc4cc(Cl)ccc43)COc3ccc(cc32)C(=O)NS1(=O)=O [Example 100259, (1S,3′R,6′R,7′R,8′E,11′S,12′R)-6-chloro-7′-(1,3-dithian-2-yl)-7′-hydroxy-11′,12′-dimethyl-3,4-dihydro-2H,15′H-spiro[naphthalene-1,22′-[20]oxa[13]thia[1,14]diazatetracyclo [14.7.2.0~3,6~.0~19,24~]pentacosa[8,16,18,24]tetraen]-15′-one 13′,13′-dioxide] | 6.18 | 1250 | 
9 | C[C@@H]1[C@@H](C)CCC[C@@](O)([C@@H]2CCN(C)C2=O)[C@@H]2CC[C@H]2CN2C[C@@]3(CCCc4cc(Cl)ccc43)COc3ccc(cc32)C(=O)NS1(=O)=O [Example 100204, (1S,3′R,6′R,7′S,11′S,12′R)-6-chloro-7′-hydroxy-11′,12′-dimethyl-7′-((3S)-1-methyl-2-oxo-3-pyrrolidinyl)-3,4-dihydro-2H,15′H-spiro[naphthalene-1,22′-[20]oxa[13]thia[1,14]diazatetracyclo [14.7.2.0~3,6~.0~19,24~]pentacosa[16,18,24]trien]-15′-one 13′,13′-dioxide] | 1.66 |  | IC50 [2, 7]: 5270 nM
10 | CO[C@]1(CC(=O)C(C)C)/C=C/C[C@H](C)[C@@H](C)S(=O)(=O)NC(=O)c2ccc3c(c2)N(C[C@@H]2CC[C@H]21)C[C@@]1(CCCc2cc(Cl)ccc21)CO3 [Example 100363, (1S,3′R,6′R,7′R,8′E,11′S,12′R)-6-chloro-7′-methoxy-11′,12′-dimethyl-7′-(3-methyl-2-oxobutyl)-3,4-dihydro-2H,15′H-spiro[naphthalene-1,22′-[20]oxa[13]thia[1,14]diazatetracyclo [14.7.2.0~3,6~.0~19,24~]pentacosa[8,16,18,24]tetraen]-15′-one 13′,13′-dioxide] |  | 3810 | IC50 [1]: 1.38 nM
11 | C[C@@H]1[C@@H](C)CCC[C@](O)(Cc2ccccc2)[C@@H]2CC[C@H]2CN2C[C@@]3(CCCc4cc(Cl)ccc43)COc3ccc(cc32)C(=O)NS1(=O)=O (single isomer, unassigned) [Example 100319] | 0.126 | 506 | 
12 | C[C@@H]1[C@@H](C)C/C=C/[C@](C)(OCCN2CC(F)(F)C2)[C@@H]2CC[C@H]2CN2C[C@@]3(CCCc4cc(Cl)ccc43)COc3ccc(cc32)C(=O)NS1(=O)=O [Example 100484, (1S,3′R,6′R,7′S,8′E,11′S,12′R)-6-chloro-7′-(2-(3,3-difluoro-1-azetidinyl)ethoxy)-7′,11′,12′-trimethyl-3,4-dihydro-2H,15′H-spiro[naphthalene-1,22′-[20]oxa[13]thia[1,14]diazatetracyclo [14.7.2.0~3,6~.0~19,24~]pentacosa[8,16,18,24]tetraen]-15′-one 13′,13′-dioxide] | 3.85 | 3370 | 
13 | CO[C@@]1(CC(=O)N(C)C)CCC[C@H](C)[C@@H](C)S(=O)(=O)NC(=O)c2ccc3c(c2)N(C[C@@H]2CC[C@H]21)C[C@@]1(CCCc2cc(Cl)ccc21)CO3 [Example 100176, 2-((1S,3′R,6′R,7′R,11′S,12′R)-6-chloro-7′-methoxy-11′,12′-dimethyl-13′,13′-dioxido-15′-oxo-3,4-dihydro-2H-spiro[naphthalene-1,22′-[20]oxa[13]thia[1,14]diazatetracyclo [14.7.2.0~3,6~.0~19,24~]pentacosa[16,18,24]trien]-7′-yl)-N,N-dimethylacetamide] | 0.48 | 603 | 
14 | C[C@@H]1[C@@H](C)CCC[C@@](O)(CCN2CCCCC2)[C@@H]2CC[C@H]2CN2C[C@@]3(CCCc4cc(Cl)ccc43)COc3ccc(cc32)C(=O)NS1(=O)=O [Example 100091, (1S,3′R,6′R,7′R,11′S,12′R)-6-chloro-7′-hydroxy-11′,12′-dimethyl-7′-(2-(1-piperidinyl)ethyl)-3,4-dihydro-2H,15′H-spiro[naphthalene-1,22′-[20]oxa[13]thia[1,14]diazatetracyclo [14.7.2.0~3,6~.0~19,24~]pentacosa[16,18,24]trien]-15′-one 13′,13′-dioxide] | 1.2 | 1350 | 
15 | C[C@@H]1[C@@H](C)CCC[C@@](O)(c2nccn2C)[C@@H]2CC[C@H]2CN2C[C@@]3(CCCc4cc(Cl)ccc43)COc3ccc(cc32)C(=O)NS1(=O)=O [Example 100226, (1S,3′R,6′R,7′S,11′S,12′R)-6-chloro-7′-hydroxy-11′,12′-dimethyl-7′-(1-methyl-1H-imidazol-2-yl)-3,4-dihydro-2H,15′H-spiro[naphthalene-1,22′-[20]oxa[13]thia[1,14]diazatetracyclo [14.7.2.0~3,6~.0~19,24~]pentacosa[16,18,24]trien]-15′-one 13′,13′-dioxide] | 1.4 | 849 | 
16 | COCCO[C@@]1(C)/C=C/C[C@H](C)[C@@H](C)S(=O)(=O)NC(=O)c2ccc3c(c2)N(C[C@@H]2CC[C@H]21)C[C@@]1(CCCc2cc(Cl)ccc21)CO3 [Example 100466, (1S,3′R,6′R,7′S,8′E,11′S,12′R)-6-chloro-7′-(2-methoxyethoxy)-7′,11′,12′-trimethyl-3,4-dihydro-2H,15′H-spiro[naphthalene-1,22′-[20]oxa[13]thia[1,14]diazatetracyclo [14.2.0~3,6~.0~19,24~]pentacosa[8,16,18,24]tetraen]-15′-one 13′,13′-dioxide] | 0.043 | 1440 | 
17 | CO[C@@]1(CN2CC(C)(C#N)C2)/C=C/C[C@H](C)[C@@H](C)S(=O)(=O)NC(=O)c2ccc3c(c2)N(C[C@@H]2CC[C@H]21)C[C@@]1(CCCc2cc(Cl)ccc21)CO3 [Example 67, 1-(((1S,3′R,6′R,7′S,8′E,11′S, 12′R)-6-chloro-7′-methoxy-11′,12′-dimethyl-13′,13′-dioxido-15′-oxo-3,4-dihydro-2H-spiro[naphthalene-1,22′-[20]oxa[13]thia[1,14]diazatetracyclo [14.7.2.0~3,6~.0~19,24~]pentacosa[8,16,18,24]tetraen]-7′-yl)methyl)-3-methyl-3-azetidinecarbonitrile] |  |  | IC50 [1, 5]: 0.197 nM; IC50 [2, 6]: 149 nM
